Data as given in PubChem BioAssay AID2060505 (Molecular Pharmacology Branch, DTP, NCI, 2025).

Test system: 633275-114-R-J1-PDC complex spheroids, viability
Assay: Anticancer human tumor 633275-114-R-J1-PDC patient-derived endometrial adenocarcinoma cell line growth inhibition [GQUAD]
Conditions: for IC50: curve of first compound; for viability, T/C: stronger effect = lower value
Outline: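 Tumor cells were grown as complex spheroids with HUVEC endothelial cells and mesenchymal stem cells as stroma. G-quadruplex stabilizers were combined with targeted agents over half-log dilutions from near the clinical Cmax, or from 10 microM.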

[1] = second compound 0.0316 µM, first compound 0.0316 µM
[2] = second compound 0.0316 µM, first compound 0.1 µM
[3] = second compound 0.0316 µM, first compound 0.316 µM
[4] = second compound 0.0316 µM, first compound 1 µM
[5] = second compound 0.0316 µM, first compound 3.16 µM
[6] = second compound 0.0316 µM, first compound 10 µM
[7] = second compound 0.1 µM, first compound 0.0316 µM
[8] = second compound 0.1 µM, first compound 0.1 µM
[9] = second compound 0.1 µM, first compound 0.316 µM
[10] = second compound 0.1 µM, first compound 1 µM
[11] = second compound 0.1 µM, first compound 3.16 µM
[12] = second compound 0.1 µM, first compound 10 µM
[13] = second compound 0.316 µM, first compound 0.0316 µM
[14] = second compound 0.316 µM, first compound 0.1 µM
[15] = second compound 0.316 µM, first compound 0.316 µM
[16] = second compound 0.316 µM, first compound 1 µM
[17] = second compound 0.316 µM, first compound 3.16 µM
[18] = second compound 0.316 µM, first compound 10 µM
[19] = second compound 1 µM, first compound 0.0316 µM
[20] = second compound 1 µM, first compound 0.1 µM
[21] = second compound 1 µM, first compound 0.316 µM
[22] = second compound 1 µM, first compound 1 µM
[23] = second compound 1 µM, first compound 3.16 µM
[24] = second compound 1 µM, first compound 10 µM
[25] = second compound 3.16 µM, first compound 0.0316 µM
[26] = second compound 3.16 µM, first compound 0.1 µM
[27] = second compound 3.16 µM, first compound 0.316 µM
[28] = second compound 3.16 µM, first compound 1 µM
[29] = second compound 3.16 µM, first compound 3.16 µM
[30] = second compound 3.16 µM, first compound 10 µM
[31] = second compound 10 µM, first compound 0.0316 µM
[32] = second compound 10 µM, first compound 0.1 µM
[33] = second compound 10 µM, first compound 0.316 µM
[34] = second compound 10 µM, first compound 1 µM
[35] = second compound 10 µM, first compound 3.16 µM
[36] = second compound 10 µM, first compound 10 µM
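Further: spheroids exposed to the agents for seven days.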
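Wherever viability, T/C is given: percent of DMSO vehicle control viability which is 100%.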

SMILES: CC(C)(O)C1CCC(Nc2ccc3ncc(-c4cccc(C(F)(F)F)c4)n3n2)CC1 (stereo unspecified) + CN(C)c1ccc(Nc2c3ccc(NC(=O)CCN4CCCC4)cc3nc3cc(NC(=O)CCN4CCCC4)ccc23)cc1
- IC50 (second compound 0.0316 µM): 1850 nM
- IC50 (second compound 0.1 µM): 1990 nM
- IC50 (second compound 0.316 µM): 2090 nM
- IC50 (second compound 1 µM): 1820 nM
- IC50 (second compound 3.16 µM): 1310 nM
- IC50 (second compound 10 µM): < 31.6 nM
- viability, T/C [1]: 102%
- viability, T/C [2]: 96.8%
- viability, T/C [3]: 90.1%
- viability, T/C [4]: 72.2%
- viability, T/C [5]: 28.8%
- viability, T/C [6]: 32.2%
- viability, T/C [7]: 94%
- viability, T/C [8]: 99.9%
- viability, T/C [9]: 88.2%
- viability, T/C [10]: 70.4%
- viability, T/C [11]: 32.8%
- viability, T/C [12]: 39.7%
- viability, T/C [13]: 97.6%
- viability, T/C [14]: 87.7%
- viability, T/C [15]: 92.6%
- viability, T/C [16]: 76.1%
- viability, T/C [17]: 32.7%
- viability, T/C [18]: 37.8%
- viability, T/C [19]: 94.6%
- viability, T/C [20]: 97.2%
- viability, T/C [21]: 88.3%
- viability, T/C [22]: 73%
- viability, T/C [23]: 27.8%
- viability, T/C [24]: 28.2%
- viability, T/C [25]: 85.4%
- viability, T/C [26]: 69.2%
- viability, T/C [27]: 81.9%
- viability, T/C [28]: 59.5%
- viability, T/C [29]: 19.1%
- viability, T/C [30]: 20.4%
- viability, T/C [31]: 33.1%
- viability, T/C [32]: 32.3%
- viability, T/C [33]: 23.7%
- viability, T/C [34]: 21.1%
- viability, T/C [35]: 7.71%
- viability, T/C [36]: 6.08%

SMILES: COc1ncnc(C2CC2)c1-c1ncc2cnn(Cc3ccc(-c4nc(C(F)(F)F)cn4C(C)C)cc3)c2n1 + CN(C)c1ccc(Nc2c3ccc(NC(=O)CCN4CCCC4)cc3nc3cc(NC(=O)CCN4CCCC4)ccc23)cc1
- IC50 (second compound 0.0316 µM): > 10000 nM
- IC50 (second compound 0.1 µM): > 10000 nM
- IC50 (second compound 0.316 µM): > 10000 nM
- IC50 (second compound 1 µM): > 10000 nM
- IC50 (second compound 3.16 µM): > 10000 nM
- IC50 (second compound 10 µM): < 31.6 nM
- viability, T/C [1]: 102%
- viability, T/C [2]: 102%
- viability, T/C [3]: 84.5%
- viability, T/C [4]: 101%
- viability, T/C [5]: 102%
- viability, T/C [6]: 95.4%
- viability, T/C [7]: 101%
- viability, T/C [8]: 90.8%
- viability, T/C [9]: 88.4%
- viability, T/C [10]: 99%
- viability, T/C [11]: 93.3%
- viability, T/C [12]: 87.3%
- viability, T/C [13]: 86.8%
- viability, T/C [14]: 103%
- viability, T/C [15]: 86.8%
- viability, T/C [16]: 94.5%
- viability, T/C [17]: 97.2%
- viability, T/C [18]: 94%
- viability, T/C [19]: 89.3%
- viability, T/C [20]: 97.9%
- viability, T/C [21]: 92.6%
- viability, T/C [22]: 69.2%
- viability, T/C [23]: 96.6%
- viability, T/C [24]: 92.3%
- viability, T/C [25]: 79.8%
- viability, T/C [26]: 81.7%
- viability, T/C [27]: 81.2%
- viability, T/C [28]: 76.1%
- viability, T/C [29]: 84.4%
- viability, T/C [30]: 67.8%
- viability, T/C [31]: 32.7%
- viability, T/C [32]: 30.2%
- viability, T/C [33]: 31.1%
- viability, T/C [34]: 27.2%
- viability, T/C [35]: 26.6%
- viability, T/C [36]: 12.8%

SMILES: Cc1[nH]c2ccccc2c1CCNCc1ccc(/C=C/C(=O)NO)cc1 + CN(C)c1ccc(Nc2c3ccc(NC(=O)CCN4CCCC4)cc3nc3cc(NC(=O)CCN4CCCC4)ccc23)cc1
- IC50 (second compound 0.0316 µM): 82.6 nM
- IC50 (second compound 0.1 µM): 55.1 nM
- IC50 (second compound 0.316 µM): 55.2 nM
- IC50 (second compound 1 µM): 48 nM
- IC50 (second compound 3.16 µM): 24.8 nM
- IC50 (second compound 10 µM): < 0.999 nM
- viability, T/C (second compound 0.0316 µM, first compound 0.000999 µM): 97.4%
- viability, T/C (second compound 0.0316 µM, first compound 0.00316 µM): 94.7%
- viability, T/C (second compound 0.0316 µM, first compound 0.00999 µM): 84.9%
- viability, T/C [1]: 59.6%
- viability, T/C (second compound 0.0316 µM, first compound 0.0999 µM): 51.3%
- viability, T/C [3]: 21.6%
- viability, T/C (second compound 0.1 µM, first compound 0.000999 µM): 94.2%
- viability, T/C (second compound 0.1 µM, first compound 0.00316 µM): 102%
- viability, T/C (second compound 0.1 µM, first compound 0.00999 µM): 80.5%
- viability, T/C [7]: 57.1%
- viability, T/C (second compound 0.1 µM, first compound 0.0999 µM): 43%
- viability, T/C [9]: 22%
- viability, T/C (second compound 0.316 µM, first compound 0.000999 µM): 96.8%
- viability, T/C (second compound 0.316 µM, first compound 0.00316 µM): 97.4%
- viability, T/C (second compound 0.316 µM, first compound 0.00999 µM): 70.5%
- viability, T/C [13]: 60.5%
- viability, T/C (second compound 0.316 µM, first compound 0.0999 µM): 41.2%
- viability, T/C [15]: 19.4%
- viability, T/C (second compound 1 µM, first compound 0.000999 µM): 88%
- viability, T/C (second compound 1 µM, first compound 0.00316 µM): 83.4%
- viability, T/C (second compound 1 µM, first compound 0.00999 µM): 67.3%
- viability, T/C [19]: 58.1%
- viability, T/C (second compound 1 µM, first compound 0.0999 µM): 38.4%
- viability, T/C [21]: 18.3%
- viability, T/C (second compound 3.16 µM, first compound 0.000999 µM): 82.4%
- viability, T/C (second compound 3.16 µM, first compound 0.00316 µM): 80.2%
- viability, T/C (second compound 3.16 µM, first compound 0.00999 µM): 61.2%
- viability, T/C [25]: 48.6%
- viability, T/C (second compound 3.16 µM, first compound 0.0999 µM): 26.3%
- viability, T/C [27]: 15.4%
- viability, T/C (second compound 10 µM, first compound 0.000999 µM): 34.1%
- viability, T/C (second compound 10 µM, first compound 0.00316 µM): 29.8%
- viability, T/C (second compound 10 µM, first compound 0.00999 µM): 21%
- viability, T/C [31]: 23.4%
- viability, T/C (second compound 10 µM, first compound 0.0999 µM): 13.6%
- viability, T/C [33]: 4.56%
